Measurements taken from patent US8652444B2, “Oral compositions containing biphenol antibacterial compounds” (Colgate-Palmolive Company, priority 2004, dated 2014).
Converted amounts (≈) assume the structure as drawn.

How the values were obtained:
Format in all cases: cell-based
[1] = test system: staphylococcus, streptococcus, and bacillus bacteria; assay: MIC50 against a variety of bacteria, comparison; settings: against a number of staphylococcus, streptococcus, and bacillus bacteria of Table I; comparable to triclosan
Description: (§1) MIC50 values against a variety of bacteria are measured for the dipropyl and dibutyl derivatives and compared to those for triclosan.

[2] = test system: E. corrodens; assay: MIC50 against bacteria; settings: unit assumed
Description: as §1

[3] = test system: S. gordonii; assay: MIC50 against bacteria; settings: unit assumed
Description: as §1

[4] = test system: F. nucleatum; assay: MIC50 against bacteria; settings: unit assumed
Description: as §1

[5] = test system: M. catarrhalis; assay: MIC50 against bacteria; settings: unit assumed
Description: as §1

[6] = test system: P. intermedia; assay: MIC50 against bacteria; settings: unit assumed
Description: as §1

[7] = test system: B. cereus; assay: MIC50 against bacteria; settings: unit assumed
Description: as §1

[8] = test system: P. nigresc.; assay: MIC50 against bacteria; settings: unit assumed
Description: as §1

[9] = test system: S. mutans; assay: MIC50 against bacteria; settings: unit assumed
Description: as §1

[10] = test system: P. gingivalis; assay: MIC50 against bacteria; settings: unit assumed
Description: as §1

[11] = test system: S. aureus; assay: MIC50 against bacteria; settings: unit assumed
Description: as §1

[12] = test system: A. actino.; assay: MIC50 against bacteria; settings: unit assumed
Description: as §1

[13] = test system: B. subtilis; assay: MIC50 against bacteria; settings: unit assumed
Description: as §1

[14] = test system: certain oral bacteria; assay: MIC50 against certain oral bacteria, comparison
Description: as §1

In the case of `CCCCc1ccc(O)c(-c2cc(CCCC)ccc2O)c1` [dibutyl derivative, 5,5′-dibutyl-2,2′-dihydroxy-1,1′-biphenyl], the “MIC50 relative to the dipropyl derivative” value [1] is reported as “over an order of magnitude less than that of the dipropyl derivative”, the MIC50 [2] is reported as 0.5 µg/mL (≈ 1.68 µM) and the MIC50 [3] is reported as 31.3 µg/mL (≈ 105 µM). For the same molecule, the MIC50 [4] was > 500 µg/mL, the MIC50 [5] was 15.6 µg/mL (≈ 52.3 µM) and the MIC50 [6] was 2 µg/mL (≈ 6.7 µM). For the same molecule, the MIC50 [7] was 31.3 µg/mL (≈ 105 µM), the MIC50 [8] was 3.9 µg/mL (≈ 13.1 µM) and the MIC50 [9] was 3.9 µg/mL (≈ 13.1 µM). The MIC50 [10] was 2 µg/mL (≈ 6.7 µM), the MIC50 [11] was 7.8 µg/mL (≈ 26.1 µM) and the MIC50 [12] was > 500 µg/mL. The MIC50 [13] was 7.8 µg/mL (≈ 26.1 µM) and the “MIC50 relative to an analogous compound containing propyl groups” value [14] was “lower”.
`CCCc1ccc(O)c(-c2cc(CCC)ccc2O)c1` [dipropyl derivative, 5,5′-propyl-2,2′-dihydroxy-1,1′-biphenyl] was tested, and the MIC50 [2] was 1 µg/mL (≈ 3.7 µM), the MIC50 [3] was > 500 µg/mL and the MIC50 [4] was > 500 µg/mL. For the same molecule, the MIC50 [5] was 7.8 µg/mL (≈ 28.8 µM), the MIC50 [6] was 2 µg/mL (≈ 7.4 µM) and the MIC50 [7] was > 500 µg/mL. For the same molecule, the MIC50 [8] was 7.8 µg/mL (≈ 28.8 µM), the MIC50 [9] was > 500 µg/mL and the MIC50 [10] was 3.9 µg/mL (≈ 14.4 µM). The MIC50 [11] was > 500 µg/mL, the MIC50 [12] was > 500 µg/mL and the MIC50 [13] was > 500 µg/mL.
In the case of `Oc1cc(Cl)ccc1Oc1ccc(Cl)cc1Cl` [triclosan], the MIC50 [2] is reported as < 0.001 µg/mL, the MIC50 [3] is reported as 7.8 µg/mL (≈ 26.9 µM) and the MIC50 [4] is reported as 1 µg/mL (≈ 3.45 µM). The MIC50 [5] was < 0.001 µg/mL, the MIC50 [6] was 1 µg/mL (≈ 3.45 µM) and the MIC50 [7] was 15.6 µg/mL (≈ 53.9 µM). It also gave an MIC50 [8] of 3.9 µg/mL (≈ 13.5 µM), an MIC50 [9] of 7.8 µg/mL (≈ 26.9 µM) and an MIC50 [10] of 0.5 µg/mL (≈ 1.73 µM). For the same molecule, the MIC50 [11] was 2 µg/mL (≈ 6.91 µM), the MIC50 [12] was 0.125 µg/mL (≈ 0.432 µM) and the MIC50 [13] was 2 µg/mL (≈ 6.91 µM).
